DC50 and Dmax data for 23 molecules are collected here from patent publication US12570662B2, “Substituted pyrrolo[1,2-b]pyridazines as bifunctional degraders of interleukin-1 receptor-associated kinases” (Nurix Therapeutics, Inc., priority 2021, dated 2026).

The test has as its target T1, IRAK4 (Homo sapiens, UniProt Q9NWZ3).
T1 construct: C-terminal HiBiT-tagged Jurkat cells (polyclonal cell line or clone 8D5); endogenous in cells; host or cells: Jurkat cells (polyclonal cell line or clone 8D5), HiBiT-tagged
T1 sequence (Q9NWZ3 1-460): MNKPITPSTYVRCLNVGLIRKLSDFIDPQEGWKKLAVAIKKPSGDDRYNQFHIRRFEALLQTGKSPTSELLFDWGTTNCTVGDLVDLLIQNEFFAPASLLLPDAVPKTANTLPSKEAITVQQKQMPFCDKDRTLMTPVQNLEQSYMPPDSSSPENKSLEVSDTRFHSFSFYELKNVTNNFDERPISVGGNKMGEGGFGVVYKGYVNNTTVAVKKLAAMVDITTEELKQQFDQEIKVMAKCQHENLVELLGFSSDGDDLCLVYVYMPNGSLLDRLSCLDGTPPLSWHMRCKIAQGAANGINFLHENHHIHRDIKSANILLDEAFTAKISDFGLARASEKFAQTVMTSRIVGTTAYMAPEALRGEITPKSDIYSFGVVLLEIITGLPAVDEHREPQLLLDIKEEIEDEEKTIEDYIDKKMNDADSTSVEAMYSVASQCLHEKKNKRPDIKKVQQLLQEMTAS
Kind of test: IRAK4 Degradation HiBit Assay. It is filed as cell-based. Particulars: C-terminal HiBiT-tagged Jurkat cells, 4 hrs incubation; for DC50: % IRAK4 remaining, four-parameter fit (IC50 used as DC50); for Dmax: from fit of % IRAK4 remaining, read-out: Dmax. The method, boiled down: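 Jurkat cells carrying C-terminal HiBiT-tagged IRAK4 (polyclonal or clone 8D5) exposed to compound, 10 μM–0.1 nM final over 11 points, for 4 h at 32 °C. Remaining IRAK4 measured by lytic HiBiT/LgBiT luminescence relative to DMSO. DC50 and Dmax taken from four-parameter variable-slope fits.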

Take `N#Cc1cnn2c(-c3cc(N[C@@H]4CCOC4)c(-c4nnc(N5CCN(CC6CCN(c7ccc([C@@H]8CCC(=O)NC8=O)cn7)CC6)CC5)s4)cn3)ccc2c1` (single isomer, unassigned) [Example 127]: half-maximal degradation (DC50) was put at 9 nM and the Dmax came out at 113%.
Take `N#CCNc1cc(-c2ccc3cc(C#N)cnn23)ncc1-c1nnc(N2CC3CCC(C2)N3CC2CCN(c3ccc([C@@H]4CCC(=O)NC4=O)cc3)CC2)s1` (single isomer, unassigned) [Example 128]: the DC50 turned out to be 6 nM and the Dmax turned out to be 111%.
The matching figures for `C[C@H](C#N)Nc1cc(-c2ccc3cc(C#N)cnn23)ncc1-c1nnc(N2CCN(CC3CCN(c4ccc([C@@H]5CCC(=O)NC5=O)cn4)CC3)CC2)s1` (single isomer, unassigned) [Example 129]: 5 nM and 113%.
As to `N#Cc1cnn2c(-c3cc(N[C@H]4CCOC4)c(-c4nnc(N5CCN(CC6CCN(c7ccc([C@@H]8CCC(=O)NC8=O)cn7)CC6)CC5)s4)cn3)ccc2c1` (single isomer, unassigned) [Example 130], it took 22 nM to reach half-maximal degradation (DC50) and the Dmax worked out at 112%.
With `N#Cc1cnn2c(-c3cc(N[C@@H]4CCOC4)c(-c4nnc(N5CC6CCC(C5)N6CC5CCN(c6ccc([C@@H]7CCC(=O)NC7=O)cc6)CC5)s4)cn3)ccc2c1` (single isomer, unassigned) [Example 131], the DC50 is 21 nM and the Dmax turned out to be 110%.
As for `N#CCNc1cc(-c2ccc3cc(C#N)cnn23)ncc1-c1nnc(N2CCN(CC3CCN(c4ccc([C@@H]5CCC(=O)NC5=O)cn4)CC3)CC2)s1` (single isomer, unassigned) [Example 132], it took 13 nM to reach half-maximal degradation (DC50) and the Dmax was found to be 111%.
The matching figures for `N#CCNc1cc(-c2ccc3cc(C#N)cnn23)ncc1-c1nnc(N2CC3CCC(C2)N3CC2CCN(c3ccc([C@@H]4CCC(=O)NC4=O)cn3)CC2)s1` (single isomer, unassigned) [Example 133]: 13 nM and 110%.
The corresponding values for `N#Cc1cnn2c(-c3cc(NC4(C#N)CC4)c(-c4nnc(N5CC6CCC(C5)N6CC5CCN(c6ccc([C@@H]7CCC(=O)NC7=O)cn6)CC5)s4)cn3)ccc2c1` (single isomer, unassigned) [Example 134] are 20 nM and 111%.
In the case of `C[C@H](C#N)Nc1cc(-c2ccc3cc(C#N)cnn23)ncc1-c1nnc(N2CC3CCC(C2)N3CC2CCN(c3ccc([C@@H]4CCC(=O)NC4=O)cn3)CC2)s1` (single isomer, unassigned) [Example 135], half-maximal degradation (DC50) was put at 5 nM and the Dmax was determined as 108%.
Turning to `N#Cc1cnn2c(-c3cc(Nc4cnoc4)c(-c4nnc(N5CC6CCC(C5)N6CC5CCN(c6ccc([C@@H]7CCC(=O)NC7=O)cn6)CC5)s4)cn3)ccc2c1` (single isomer, unassigned) [Example 136], the 50% degradation concentration (DC50) was determined as 25 nM and the Dmax came out at 113%.
In the case of `N#Cc1cnn2c(-c3cc(N[C@@H]4CCOC4)c(-c4nnc(N5CCN(CC6CCN(c7ccc([C@H]8CCC(=O)NC8=O)cn7)CC6)CC5)s4)cn3)ccc2c1` (single isomer, unassigned) [Example 137], the half-maximal degradation concentration (DC50) was 104 nM and the Dmax came to 88%.
Turning to `C[C@H](C#N)Nc1cc(-c2ccc3cc(C#N)cnn23)ncc1-c1nnc(N2CC3CCC(C2)N3CC2CCN(c3ccc([C@H]4CCC(=O)NC4=O)cn3)CC2)s1` (single isomer, unassigned) [Example 142], it took 12 nM to reach half-maximal degradation (DC50) and the Dmax was 96%.
For `C[C@@H](C#N)Nc1cc(-c2ccc3cc(C#N)cnn23)ncc1-c1nnc(N2CC3CCC(C2)N3CC2CCN(c3ccc([C@H]4CCC(=O)NC4=O)cn3)CC2)s1` (single isomer, unassigned) [Example 143], half-maximal degradation (DC50) was put at 72 nM and the Dmax stood at 99%.
Turning to `N#Cc1cnn2c(-c3cc(N[C@H]4CCOC4)c(-c4nnc(N5CCN(CC6CCN(c7ccc([C@H]8CCC(=O)NC8=O)cn7)CC6)CC5)s4)cn3)ccc2c1` (single isomer, unassigned) [Example 144], the DC50 was 166 nM and the Dmax came to 87%.
In the case of `C[C@@H](C#N)Nc1cc(-c2ccc3cc(C#N)cnn23)ncc1-c1nnc(N2CC3CCC(C2)N3CC2CCN(c3ccc([C@@H]4CCC(=O)NC4=O)cn3)CC2)s1` (single isomer, unassigned) [Example 145], the 50% degradation concentration (DC50) worked out at 22 nM and the Dmax is 113%.
In the case of `N#Cc1cnn2c(-c3cc(NC4CCOCC4)c(-c4nnc(N5CCN(CC6CCN(c7ccc(N8CCC(=O)NC8=O)c(F)c7)CC6)CC5)s4)cn3)ccc2c1` [Example 8, 7-(5-{5-[4-({1-[4-(2,4-dioxo-1,3-diazinan-1-yl)-3-fluorophenyl]piperidin-4-yl}methyl)piperazin-1-yl]-1,3,4-thiadiazol-2-yl}-4-[(oxan-4-yl)amino]pyridin-2-yl)pyrrolo[1,2-b]pyridazine-3-carbonitrile], half-maximal degradation (DC50) was put at 29 nM and the Dmax was found to be 110%.
For the molecule `N#Cc1cnn2c(-c3cc(NC4CCOCC4)c(-c4nnc(N5CCN(CC6CCN(c7ccc(N8CCC(=O)NC8=O)cn7)CC6)CC5)s4)cn3)ccc2c1` [Example 28, 7-(5-{5-[4-({1-[5-(2,4-dioxo-1,3-diazinan-1-yl)pyridin-2-yl]piperidin-4-yl}methyl)piperazin-1-yl]-1,3,4-thiadiazol-2-yl}-4-[(oxan-4-yl)amino]pyridin-2-yl)pyrrolo[1,2-b]pyridazine-3-carbonitrile], half-maximal degradation (DC50) was put at 15 nM and the Dmax came to 107%.
The matching figures for `N#Cc1cnn2c(-c3cc(NC4CCOCC4)c(-c4nnc(N5CCN(CC6CCN(c7ccc(N8CCC(=O)NC8=O)cc7)CC6)CC5)s4)cn3)ccc2c1` [Example 60, 7-(5-{5-[4-({1-[4-(2,4-dioxo-1,3-diazinan-1-yl)phenyl]piperidin-4-yl}methyl)piperazin-1-yl]-1,3,4-thiadiazol-2-yl}-4-[(oxan-4-yl)amino]pyridin-2-yl)pyrrolo[1,2-b]pyridazine-3-carbonitrile]: 16 nM and 86%.
As to `N#Cc1cnn2c(-c3cc(NC4CCOCC4)c(-c4nnc(N5CCN(CC6CCN(C(=O)c7ccc(F)c(N8CCC(=O)NC8=O)c7)CC6)CC5)s4)cn3)ccc2c1` [Example 62, 7-(5-{5-[4-({1-[3-(2,4-dioxo-1,3-diazinan-1-yl)-4-fluorobenzoyl]piperidin-4-yl}methyl)piperazin-1-yl]-1,3,4-thiadiazol-2-yl}-4-[(oxan-4-yl)amino]pyridin-2-yl)pyrrolo[1,2-b]pyridazine-3-carbonitrile], it took 12 nM to reach half-maximal degradation (DC50) and the Dmax was 41%.
`N#Cc1cnn2c(-c3cc(NC4CCOCC4)c(-c4nnc(C56CCC(C(=O)N7CCc8cc(N9CCC(=O)NC9=O)ccc8C7)(CC5)CC6)s4)cn3)ccc2c1` [Example 63, 7-[5-(5-{4-[6-(2,4-dioxo-1,3-diazinan-1-yl)-1,2,3,4-tetrahydroisoquinoline-2-carbonyl]bicyclo[2.2.2]octan-1-yl}-1,3,4-thiadiazol-2-yl)-4-[(oxan-4-yl)amino]pyridin-2-yl]pyrrolo[1,2-b]pyridazine-3-carbonitrile]: the half-maximal degradation concentration (DC50) is 29 nM and the Dmax is 95%.
`CC(C)Nc1cc(-c2ccc3cc(C#N)cnn23)ncc1-c1nnc(N2CCN(CC3CCN(c4ccc(N5CCC(=O)NC5=O)cn4)CC3)CC2)s1` [Example 65, 7-(5-{5-[4-({1-[5-(2,4-dioxo-1,3-diazinan-1-yl)pyridin-2-yl]piperidin-4-yl}methyl)piperazin-1-yl]-1,3,4-thiadiazol-2-yl}-4-[(propan-2-yl)amino]pyridin-2-yl)pyrrolo[1,2-b]pyridazine-3-carbonitrile]: half-maximal degradation (DC50) was put at 43 nM and the Dmax stood at 110%.
As to `CCNc1cc(-c2ccc3cc(C#N)cnn23)ncc1-c1nnc(N2CCN(CC3CCN(c4ccc(N5CCC(=O)NC5=O)cn4)CC3)CC2)s1` [Example 71, 7-(5-{5-[4-({1-[5-(2,4-dioxo-1,3-diazinan-1-yl)pyridin-2-yl]piperidin-4-yl}methyl)piperazin-1-yl]-1,3,4-thiadiazol-2-yl}-4-(ethylamino)pyridin-2-yl)pyrrolo[1,2-b]pyridazine-3-carbonitrile], half-maximal degradation (DC50) was put at 6 nM and the Dmax is 110%.
The matching figures for `CC(C)Nc1cc(-c2ccc3cc(C#N)cnn23)ncc1-c1nnc(N2CC3CCC(C2)N3CC2CCN(c3ccc(N4CCC(=O)NC4=O)cn3)CC2)s1` [Example 73, 7-(5-{5-[8-({1-[5-(2,4-dioxo-1,3-diazinan-1-yl)pyridin-2-yl]piperidin-4-yl}methyl)-3,8-diazabicyclo[3.2.1]octan-3-yl]-1,3,4-thiadiazol-2-yl}-4-[(propan-2-yl)amino]pyridin-2-yl)pyrrolo[1,2-b]pyridazine-3-carbonitrile]: 29 nM and 105%.
